Tests used:
[1] = target: T1, CDK4/CyclinD1 (Homo sapiens, UniProt P11802); experiment: CDK4/CyclinD1 kinase inhibitory activity (Caliper mobility shift); type: biochemical; conditions: enzyme 20 nM, ATP 672 uM, 28° C. 30 min; read-out: CDK4/Cyclin D1 IC50
T1 construct: purchased ProQinase 0142-0143-1
Method: CDK4/CyclinD1 kinase inhibitory activity (IC50): 5 μl of various dilutions of test compound in 1× kinase buffer (20 mM HEPES, pH 7.5, 10 mM MgCl2, 2 mM DTT and 0.01% Triton X-100) was mixed with 10 μL of either CDK4/Cyclin D1 (ProQinase, 0142-0143-1 #, final concentration 20 nM in 1× Kinase buffer) or in 384 plates and incubated at room temperature for 10 min. To initiate each reaction, 10 μL of peptide solution containing fluorescently-labeled-peptide 8(5-FAM-IPTSPITTTYFFFKKK-COOH, GL, 112396 #, final concentration 3000 nM) and ATP (final concentration 672 uM for CDK4/CyclinD1) in 1×Kinase buffer was added to each of the wells containing test compound and CDK4/CyclinD1 mixture. The reaction is then allowed to proceed at 28° C. for 30 min and terminated by the addition of 25 μL stop buffer (100 mM HEPES pH 7.5, 50 mM EDTA, 0.2% Coating Reagent #3 (Perkin Elmer, 760050 #) and 0.015% Brij-35).
(§1) Following the kinase reaction, Caliper EZ reader II (Downstream voltages: −500V, Upstream voltages: −2250V, Base pressure −0.5 PSI, Screen pressure −1.2 PSI) was used to separate the phosphorylated (product) and the unphosphorylated (substrate) fluorescently-labeled peptide 8 based on their different mobility. Both substrate and product were measured and the ratio of these values were used to generate % conversion by Caliper EZ reader II. These conversion values were then transformed into % inhibition of kinase activity using the formula: % Inhibition=[(MA−X)/(MA−MI)]×100% where MA=conversion value of DMSO only controls, MI=conversion value of no enzyme controls and X=conversion value at any given compound dose. IC50 values were then calculated by plotting dose-response curves and then using the XLfit application in Excel software.

[2] = target: T2, CDK6/CyclinD3 (Homo sapiens, UniProt Q00534); experiment: CDK6/CyclinD3 kinase inhibitory activity (Caliper mobility shift); type: biochemical; conditions: enzyme 15 nM, ATP 800 μM, 28° C. 30 min; read-out: CDK6/Cyclin D3 IC50
T2 construct: purchased Carna 04-107
T2 sequence (Q00534 whole entry): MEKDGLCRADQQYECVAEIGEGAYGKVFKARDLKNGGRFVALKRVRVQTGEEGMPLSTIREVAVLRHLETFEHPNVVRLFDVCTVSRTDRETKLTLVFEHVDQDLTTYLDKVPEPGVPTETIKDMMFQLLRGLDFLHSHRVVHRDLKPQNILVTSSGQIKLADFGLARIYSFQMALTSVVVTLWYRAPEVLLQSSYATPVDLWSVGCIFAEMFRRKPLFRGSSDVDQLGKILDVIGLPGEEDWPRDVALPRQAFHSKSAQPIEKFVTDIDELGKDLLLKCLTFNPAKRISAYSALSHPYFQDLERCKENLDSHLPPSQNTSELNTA
T2 sequence (P30281 whole entry partner): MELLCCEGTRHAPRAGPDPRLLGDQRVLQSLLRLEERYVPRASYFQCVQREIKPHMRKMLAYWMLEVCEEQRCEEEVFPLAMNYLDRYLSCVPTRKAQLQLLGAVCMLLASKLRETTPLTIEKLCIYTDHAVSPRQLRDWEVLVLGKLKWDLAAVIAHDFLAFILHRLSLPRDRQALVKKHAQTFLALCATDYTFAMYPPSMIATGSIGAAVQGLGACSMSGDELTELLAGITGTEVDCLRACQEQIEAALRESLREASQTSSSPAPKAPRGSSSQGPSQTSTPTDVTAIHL
Method: CDK6/CyclinD3 kinase inhibitory activity (IC50): 5 μl of various dilutions of test compound in 1× kinase buffer (50 mM HEPES pH 7.5, 10 mM MgCl2, 2 mM DTT and 0.01% Brij-35) was mixed with 10 μL of CDK6/CyclinD3 (Carna, 04-107 #, final concentration 15 nM in 1× Kinase buffer) in 384 plates and incubated at room temperature for 10 min. To initiate each reaction, 10 μL of peptide solution containing fluorescently-labeled -peptide 8(5-FAM-IPTSPITTTYFFFKKK-COOH, GL, 112396 #, final concentration 3000 nM) and ATP (final concentration 800 μM for CDK6/CyclinD3 in 1× Kinase buffer was added to each of the wells containing test compound and CDK6/CyclinD3. The reaction is then allowed to proceed at 28° C. for 30 min and terminated by the addition of 25 μL stop buffer (100 mM HEPES pH 7.5, 50 mM EDTA, 0.2% Coating Reagent #3 (Perkin Elmer, 760050 #) and 0.015% Brij-35).
as §1

T1 sequence (P11802 whole entry): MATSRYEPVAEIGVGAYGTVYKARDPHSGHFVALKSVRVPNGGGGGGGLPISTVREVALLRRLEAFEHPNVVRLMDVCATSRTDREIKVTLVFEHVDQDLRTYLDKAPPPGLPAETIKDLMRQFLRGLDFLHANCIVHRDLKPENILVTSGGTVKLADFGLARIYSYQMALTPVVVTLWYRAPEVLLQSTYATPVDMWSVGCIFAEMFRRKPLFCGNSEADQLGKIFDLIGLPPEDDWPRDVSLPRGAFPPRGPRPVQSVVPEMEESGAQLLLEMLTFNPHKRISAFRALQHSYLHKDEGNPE
T1 sequence (P24385 whole entry partner): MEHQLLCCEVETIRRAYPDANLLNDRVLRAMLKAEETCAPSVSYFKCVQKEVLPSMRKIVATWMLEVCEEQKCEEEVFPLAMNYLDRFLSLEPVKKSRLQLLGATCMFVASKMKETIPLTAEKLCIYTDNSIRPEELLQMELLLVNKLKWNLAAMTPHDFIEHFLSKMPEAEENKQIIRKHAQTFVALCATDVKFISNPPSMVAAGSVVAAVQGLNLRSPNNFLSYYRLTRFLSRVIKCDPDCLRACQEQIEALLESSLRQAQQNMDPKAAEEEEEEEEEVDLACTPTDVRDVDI

SMILES | IC50 [1] [nM] | IC50 [2] [nM]
CC(C)(O)c1cnc2c(F)cc(-c3nc(N[C@@H]4CCOC[C@H]4O)ncc3C#N)cc2c1 [Example 2, 4-(8-fluoro-3-(2-hydroxypropan-2-yl)quinolin-6-yl)-2-(((3S,4R)-3-hydroxytetrahydro-2H-pyran-4-yl)amino)pyrimidine-5-carbonitrile] | 10 to 100 | 100 to 1000
Cc1cc(C(C)(C)O)c2cc(-c3nc(N[C@@H]4CCOC[C@H]4O)ncc3Cl)ccc2n1 [Example 4, (3S,4R)-4-((5-chloro-4-(4-(2-hydroxypropan-2-yl)-2-methylquinolin-6-yl)pyrimidin-2-yl)amino)tetrahydro-2H-pyran-3-ol] | 100 to 1000 | 100 to 1000
CC(C)(O)c1cnc2ccc(-c3nc(N[C@@H]4CCOC[C@H]4O)ncc3Cl)cc2c1 [Example 6, (3S,4R)-4-((5-chloro-4-(3-(2-hydroxypropan-2-yl)quinolin-6-yl)pyrimidin-2-yl)amino)tetrahydro-2H-pyran-3-ol] | 10 to 100 | 100 to 1000
Cc1nc2c(cnc3ccc(-c4nc(N[C@@H]5CCOC[C@H]5O)ncc4Cl)cc32)[nH]1 [Example 10, (3S,4R)-4-((5-chloro-4-(2-methyl-3H-imidazo[4,5-c]quinolin-8-yl)pyrimidin-2-yl)amino)tetrahydro-2H-pyran-3-ol] | 100 to 1000 | ≥ 1000
Cc1n[nH]c2cnc3ccc(-c4nc(N[C@@H]5CCOC[C@H]5O)ncc4Cl)cc3c12 [Example 11, (3S,4R)-4-((5-chloro-4-(1-methyl-3H-pyrazolo[3,4-c]quinolin-8-yl)pyrimidin-2-yl)amino)tetrahydro-2H-pyran-3-ol] | 10 to 100 | 100 to 1000
Cc1n[nH]c2c1-c1cc(-c3nc(N[C@@H]4CCOC[C@H]4O)ncc3Cl)ccc1OC2 [Example 13, (3S,4R)-4-((5-chloro-4-(1-methyl-3,4-dihydrochromeno[3,4-c]pyrazol-8-yl)pyrimidin-2-yl)amino)tetrahydro-2H-pyran-3-ol] | 10 to 100 | 100 to 1000
O[C@@H]1COCC[C@H]1Nc1ncc(Cl)c(-c2cc(F)c3ncc(C4(O)CCC4)cc3c2)n1 [Example 16, (3S,4R)-4-((5-chloro-4-(8-fluoro-3-(1-hydroxycyclobutyl)quinolin-6-yl)pyrimidin-2-yl)amino)tetrahydro-2H-pyran-3-ol] | < 10 | 100 to 1000
O[C@@H]1COCC[C@H]1Nc1ncc(Cl)c(-c2cc(F)c3ncc(-c4ncc[nH]4)cc3c2)n1 [Example 28] | 10 to 100 | 100 to 1000
Cc1nc2c(F)cc(-c3nc(N[C@@H]4CCOC[C@H]4O)ncc3Cl)cc2c2c1CCNC2 [Example 33] | < 10 | 100 to 1000
CC(C)(O)c1cnc2c(F)cc(-c3cc(N[C@@H]4CCOC[C@H]4O)ncc3Cl)cc2c1Cl [Example 42] | < 10 | 100 to 1000
COc1c(C(C)(C)O)cnc2c(F)cc(-c3nc(N[C@@H]4CCOC[C@H]4O)ncc3Cl)cc12 [Example 43] | < 10 | 100 to 1000
O[C@@H]1COCC[C@H]1Nc1ncc(Cl)c(-c2cc(F)c3ncc(C4(O)CC4)c(Cl)c3c2)n1 [Example 44] | < 10 | 10 to 100
CC(C)(O)C1COc2c(F)cc(-c3nc(N[C@@H]4CCOC[C@H]4O)ncc3Cl)cc2C1 (stereo partly shown) [Example 46] | < 10 | 100 to 1000
CC(C)(O)C1COc2c(F)cc(-c3nc(N[C@@H]4CCOC[C@H]4O)ncc3Cl)cc2C1 (stereo partly shown) [Example 47] | 10 to 100 | 100 to 1000
CC1(C)Cc2cnc3c(F)cc(-c4nc(N[C@@H]5COC[C@H]5O)ncc4Cl)cc3c2CN1 [Example 50] | 10 to 100 | ≥ 1000
Cc1nc2c(F)cc(-c3nc(N[C@@H]4CCOC[C@H]4O)ncc3F)cc2cc1C(C)(C)O [Example 51] | < 10 | 100 to 1000
CC(C)(O)c1cnc2c(F)cc(-c3nc(N[C@@H]4CCOC[C@H]4O)ncc3Cl)cc2c1F [Example 53] | < 10 | 100 to 1000
CC(C)(O)c1cnc2c(F)cc(-c3nc(Nc4ccc(-c5cn[nH]c5)cn4)ncc3F)cc2c1Cl [Example 55] | < 10 | ≥ 1000
CCc1c(C(C)(C)O)nnc2c(F)cc(-c3nc(N[C@@H]4CCOC[C@H]4O)ncc3Cl)cc12 [Example 61, (3S,4R)-4-((5-chloro-4-(4-ethyl-8-fluoro-3-(2-hydroxypropan-2-yl)cinnolin-6-yl)pyrimidin-2-yl)amino)tetrahydro-2H-pyran-3-ol] | 10 to 100 | 100 to 1000

SMILES | IC50 [1] [nM] | IC50 [2] [nM]
[2H]C1([2H])NC(C)(C)Cc2cnc3c(F)cc(-c4nc(N[C@@H]5CCOC[C@H]5O)ncc4F)cc3c21 [Example 62, (3S,4R)-4-((5-fluoro-4-(7-fluoro-3,3-dimethyl-1,2,3,4-tetrahydrobenzo[c][2,6]naphthyridin-9-yl-1,1-d2)pyrimidin-2-yl)amino)tetrahydro-2H-pyran-3-ol] | < 10 | 10 to 100
[2H]c1nc2c(F)cc(-c3ccnc(N[C@@H]4CCOC[C@H]4O)n3)cc2c2c1CC1(CC1)NC2 [Example 66] | 10 to 100 | 100 to 1000
Cc1nc2c(F)cc(-c3nc(N[C@@H]4CCOC[C@H]4O)ncc3Cl)cc2c2c1CC1(CC1)NC2 [Example 69] | < 10 | 100 to 1000
[2H]c1nc2c(F)cc(-c3nc(N[C@@H]4CCOC[C@H]4O)ncc3F)cc2c2c1CC1(CC1)NC2 [Example 70] | < 10 | 100 to 1000
[2H]c1nc(N[C@@H]2CCOC[C@H]2O)nc(-c2cc(F)c3nc([2H])c4c(c3c2)CNC2(CC2)C4)c1F [Example 71] | < 10 | 100 to 1000
[2H]c1nc2c(F)cc(-c3nc(N[C@@H]4CCOC[C@H]4O)ncc3Cl)cc2c2c1CC1(CC1)NC2 [Example 72] | < 10 | 100 to 1000
Cc1cc(C(C)(C)O)c2cc(-c3nc(N[C@@H]4CCOC[C@H]4O)ncc3Cl)cc(F)c2n1 [Example 75] | 10 to 100 | 100 to 1000
Cc1cc(C(C)(C)O)c2cc(-c3nc(N[C@@H]4CCOC[C@H]4O)ncc3F)cc(F)c2n1 [Example 76] | 10 to 100 | 100 to 1000
Cc1nc2c(F)cc(-c3cc(N[C@@H]4CCOC[C@H]4O)ncc3F)cc2cc1C(C)(C)O [Example 78] | < 10 | 100 to 1000
CC(C)(O)c1cnc2c(F)cc(-c3nc(Nc4ccc(C(=O)CO)cn4)ncc3F)cc2c1Cl [Example 80] | 10 to 100 | ≥ 1000
Cc1c(C(C)(C)O)nnc2c(F)cc(-c3nc(N[C@@H]4CCOC[C@H]4O)ncc3Cl)cc12 [Example 87] | 10 to 100 | 100 to 1000
Cc1nc2c(F)cc(-c3nc(N[C@@H]4CCOC[C@H]4O)ncc3F)cc2c2c1CC(C)(C)NC2 [Example 92] | < 10 | 100 to 1000
[2H]c1nc(N[C@@H]2CCOC[C@H]2O)nc(-c2cc(F)c3nc([2H])c(C(C)(C)O)c(C)c3c2)c1F [Example 95] | < 10 | 10 to 100
Cc1cc(C(C)(C)O)nc2c(F)cc(-c3nc(N[C@@H]4CCOC[C@H]4O)ncc3F)cc12 [Example 96] | 10 to 100 | ≥ 1000
CC(C)(O)c1cnc2c(F)cc(-c3ccnc(N[C@@H]4CCOC[C@H]4O)n3)cc2c1Cl [Example 97] | 10 to 100 | 100 to 1000
Cc1nc2c(F)cc(-c3ccnc(N[C@@H]4CCOC[C@H]4O)n3)cc2c2c1CC(C)(C)NC2 [Example 99] | 10 to 100 | ≥ 1000
[2H]c1nc2c(F)cc(-c3ccnc(N[C@@H]4CCOC[C@H]4O)n3)cc2c2c1CC(C)(C)NC2 [Example 101] | < 10 | 100 to 1000
[2H]c1nc(N[C@@H]2CCOC[C@H]2O)nc(-c2cc(F)c3nc(C)c4c(c3c2)CNC(C)(C)C4)c1Cl [Example 103] | < 10 | 100 to 1000
Cc1cnc(N[C@@H]2CCOC[C@H]2O)nc1-c1cc(F)c2nc(C)c3c(c2c1)CNC(C)(C)C3 [Example 104] | 10 to 100 | ≥ 1000
